Measured values as given in patent publication US20240408169A1 (priority 2023, published 2024).
Like-named read-outs stand apart in the source and are kept apart here. *1 amine or outer side, *2 acyl side, *3 side chain or, on linkers, in order; H or OH if unused. Where a SMILES comes first, the peptide text is derived from it. Bridges are numbered along the chain shown (N, C = ends). [ ]: non-standard residue; d: D form. The star is where a group is joined. X205 = CC(C)C(=O)N1[C@@H]2COC[C@H]1C=C(c1ccc(F)cc1C[C@@H](C(=O)[*:2])N(C)[*:1])C2; NMeAla(5-Cl-2-cPrO-3-pyridyl) = CN[C@@H](Cc1cc(Cl)cnc1OC1CC1)C(=O)O; X141 = CN([C@@H](Cc1cc(Cl)ccc1C1=CCN(S(C)(=O)=O)C1)C(=O)[*:2])[*:1]; X195 = CC(=O)Nc1ccc(-c2ccc(Cl)cc2C[C@@H](C(=O)[*:2])N(C)[*:1])cn1; X209 = CN([C@@H](Cc1cc(Cl)ccc1-c1cnc2nn(C)cc2c1)C(=O)[*:2])[*:1]; X197 = CN([C@@H](Cc1cc(Cl)ccc1-c1ccc(=O)[nH]c1)C(=O)[*:2])[*:1]; NMehhhLys(Me) = CN([C@@H](CCCCCCCN(C)[*:3])C(=O)[*:2])[*:1]; X112 = CN([C@@H](Cc1cc(F)ccc1-c1cnn(C)c1)C(=O)[*:2])[*:1]; X44 = Cc1nnc(-c2ccc(Cl)cc2C[C@@H](C(=O)[*:2])N(C)[*:1])o1; NMe(hhhLys) = CN([C@@H](CCCCCCCN[*:3])C(=O)[*:2])[*:1]; X132 = CN([C@@H](Cc1cc(Cl)cc2ccoc12)C(=O)[*:2])[*:1]; Cyclobutanecarbonyl(1-CF3) = O=C(C1(C(F)(F)F)CCC1)*; cBuCO(3,3-F2-1-CF3) = O=C(C1(C(F)(F)F)CC(F)(F)C1)*; Pro(trans-4-F) = O=C(O)[C@@H]1C[C@@H](F)CN1; Gly(cPr) = N[C@H](C(=O)O)C1CC1

Key:
[1] = tested on: NCI-H1048 cells; test: MTT proliferation assay, NCI-H1048; type: cell-based; conditions: 5 days compound exposure, 1:3 serial dilution starting at 10 μM;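 note: Dose-response in 96-well plates over 8 or 10 concentration points, with exposure spanning 3-4 cell doublings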
[2] = tested on: OVCAR3 cells; test: MTT proliferation assay, OVCAR3; type: cell-based; conditions: 5 days compound exposure, 1:3 serial dilution starting at 10 μM;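 note: compound given as an 8- or 10-point series, one day after plating, with exposure covering roughly 3-4 cell doublings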
[3] = target: T1, CyclinB1/CDK1 (Homo sapiens, UniProt P14635); test: Fluorescence Polarization (FP) competitive binding assay, Cyclin B1/Cdk1;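 note: fluorescence polarization read after equilibration at room temperature, with IC50 taken from serially diluted dose-response curves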
T1 construct: purchased Eurofins, discovery 14-450

[4] = target: T2, CyclinA2/CDK2 (Homo sapiens, UniProt P20248); test: Fluorescence Polarization (FP) competitive binding assay, Cyclin A2/Cdk2;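 note: plates equilibrated two hours at room temperature before polarization reading, IC50 fitted from eight-concentration compound titration curves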
T2 construct: purchased CRELUX Protein Services

[5] = target: T3, CyclinE1/CDK2 (Homo sapiens, UniProt P24864); test: Fluorescence Polarization (FP) competitive binding assay, Cyclin E1/Cdk2;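 note: readings taken after two-hour equilibration at room temperature in HEPES buffer with NaCl, DTT, NP-40 and BSA, IC50 fitted from eight-concentration serial dilution series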
T3 construct: purchased Eurofins, discovery 14-475

[6] = read-out: Cyclin B FP IC50; 10 nM Cyclin B1/Cdk1, 2 nM FAM probe; average of 2-3 independent experiments
[7] = read-out: Cyclin A FP IC50; 8 nM Cyclin A2/Cdk2, 2 nM FAM probe; average of 2-3 independent experiments
[8] = 10 nM Cyclin B1/Cdk1, 2 nM FAM probe; average of 2-3 independent experiments; read-out: Cyclin B FP IC50
[9] = 8 nM Cyclin A2/Cdk2, 2 nM FAM probe; average of 2-3 independent experiments; read-out: Cyclin A FP IC50
[10] = 10 nM Cyclin E1/Cdk2, 2 nM FAM probe, average of 2-3 independent experiments, read-out: Cyclin E FP IC50

SMILES	GI50 [1] [nM]	GI50 [2] [nM]	IC50 [3, 6] [nM]	IC50 [4, 7] [nM]	IC50 [5] [nM]	IC50 [3, 8] [nM]	IC50 [4, 9] [nM]	IC50 [5, 10] [nM]
CC(C)C[C@@H]1NC(=O)[C@@H](N(C)C(=O)[C@@H](NC(=O)[C@@H]2C[C@@H](F)CN2C(=O)C2(C(F)(F)F)CC(F)(F)C2)C2CC2)CCCCCCCNC(=O)[C@H](Cc2cc(F)ccc2-c2cnn(C)c2)N(C)C1=O [Example 215] ({cBuCO(3,3-F2-1-CF3)}-[Pro(trans-4-F)][Gly(cPr)][NMe(hhhLys)]L[X112]; lactam 3-C)	10	10	20	20	200	–	–	–
CC(=O)N1C2C=C(c3ccc(F)cc3C[C@H]3C(=O)N(C)CCCCCCC[C@H](N(C)C(=O)[C@@H](NC(=O)[C@@H]4C[C@@H](F)CN4C(=O)C4(C(F)(F)F)CC(F)(F)C4)C4CC4)C(=O)N[C@@H](CC(C)C)C(=O)N3C)CC1CC2 (stereo partly drawn) [Example 149]	30	40	–	–	–	20	20	560
CC(C)C[C@@H]1NC(=O)[C@@H](N(C)C(=O)[C@@H](NC(=O)[C@@H]2C[C@@H](F)CN2C(=O)C2(C(F)(F)F)CC(F)(F)C2)C2CC2)CC=CCCCCN(C)C(=O)[C@H](Cc2cc(F)ccc2-c2cnn(C3CCOC3)c2)N(C)C1=O (stereo partly drawn) [Example 85]	20	20	–	–	–	20	60	280
CC(C)C[C@@H]1NC(=O)[C@@H](N(C)C(=O)[C@@H](NC(=O)[C@@H]2C[C@@H](F)CN2C(=O)C2(C(F)(F)F)CCC2)C2CC2)CC=CCCCCNC(=O)[C@H](Cc2cc(Cl)cnc2OC2CC2)N(C)C1=O (single isomer, unassigned) [Example 107-P2]	190	320	–	–	–	20	110	180
CC(C)C[C@@H]1NC(=O)[C@@H](N(C)C(=O)[C@@H](NC(=O)[C@@H]2C[C@@H](F)CN2C(=O)C2(C(F)(F)F)CC(F)(F)C2)C2CC2)CCCCCCCN(C)C(=O)[C@H](Cc2cc(Cl)ccc2C2=CCN(S(C)(=O)=O)C2)N(C)C1=O [Example 309] ({cBuCO(3,3-F2-1-CF3)}-[Pro(trans-4-F)][Gly(cPr)][NMehhhLys(Me)]L[X141]; lactam 3-C)	10	10	–	–	–	20	20	930
CC(C)C[C@@H]1NC(=O)[C@@H](N(C)C(=O)[C@@H](NC(=O)[C@@H]2C[C@@H](F)CN2C(=O)C2(C(F)(F)F)CC(F)(F)C2)C2CC2)CCCCCCCN(C)C(=O)[C@H](Cc2cc(Cl)ccc2-c2cnc3nn(C)cc3c2)N(C)C1=O [Example 249] ({cBuCO(3,3-F2-1-CF3)}-[Pro(trans-4-F)][Gly(cPr)][NMehhhLys(Me)]L[X209]; lactam 3-C)	10	10	20	20	590	–	–	–
Cc1nnc(-c2ccc(Cl)cc2C[C@H]2C(=O)NCCCCCCC[C@H](N(C)C(=O)[C@@H](NC(=O)[C@@H]3C[C@@H](F)CN3C(=O)C3(C(F)(F)F)CCC3)C3CC3)C(=O)N[C@@H](CC(C)C)C(=O)N2C)o1 [Example 161] ({Cyclobutanecarbonyl(1-CF3)}-[Pro(trans-4-F)][Gly(cPr)][NMe(hhhLys)]L[X44]; lactam 3-C)	20	20	–	–	–	20	20	120
Cc1nnc(-c2ccc(Cl)cc2C[C@H]2C(=O)N(C)CCCCC=CC[C@H](N(C)C(=O)[C@@H](NC(=O)[C@@H]3C[C@@H](F)CN3C(=O)C3(C(F)(F)F)CC(F)(F)C3)C3CC3)C(=O)N[C@@H](CC(C)C)C(=O)N2C)o1 [Example 116]	40	50	–	–	–	20	40	330
CC[C@H](NC(=O)[C@@H]1C[C@@H](F)CN1C(=O)C1(C(F)(F)F)CC1)C(=O)N[C@H]1CC=CCCCCNC(=O)[C@H](Cc2cc(Cl)ccc2Cl)N(C)C(=O)[C@H](CC(C)C)NC1=O [Example 2]	380	410	–	–	–	20	110	100
CC(C)C[C@@H]1NC(=O)[C@@H](N(C)C(=O)[C@@H](NC(=O)[C@@H]2C[C@@H](F)CN2C(=O)C2(C(F)(F)F)CC(F)(F)C2)C2CC2)CCCCCCCN(C)C(=O)[C@H](Cc2cc(Cl)cc3ccoc23)N(C)C1=O [Example 394] ({cBuCO(3,3-F2-1-CF3)}-[Pro(trans-4-F)][Gly(cPr)][NMehhhLys(Me)]L[X132]; lactam 3-C)	90	50	–	–	–	20	150	500
CC(C)C[C@@H]1NC(=O)[C@@H](N(C)C(=O)[C@@H](NC(=O)[C@@H]2C[C@@H](F)CN2C(=O)C2(C(F)(F)F)CC(F)(F)C2)C2CC2)CCCCCCCN(C)C(=O)[C@H](Cc2cc(F)ccc2-c2cnn(C)c2)N(C)C1=O [Example 65] ({cBuCO(3,3-F2-1-CF3)}-[Pro(trans-4-F)][Gly(cPr)][NMehhhLys(Me)]L[X112]; lactam 3-C)	10	10	–	–	–	20	20	270
CC(=O)Nc1ccc(-c2ccc(Cl)cc2C[C@H]2C(=O)N(C)CCCCCCC[C@H](N(C)C(=O)[C@@H](NC(=O)[C@@H]3C[C@@H](F)CN3C(=O)C3(C(F)(F)F)CC(F)(F)C3)C3CC3)C(=O)N[C@@H](CC(C)C)C(=O)N2C)cn1 [Example 265] ({cBuCO(3,3-F2-1-CF3)}-[Pro(trans-4-F)][Gly(cPr)][NMehhhLys(Me)]L[X195]; lactam 3-C)	10	20	–	–	–	20	20	640
CC(C)C[C@@H]1NC(=O)[C@@H](N(C)C(=O)[C@@H](NC(=O)[C@@H]2C[C@@H](F)CN2C(=O)C2(C(F)(F)F)CC(F)(F)C2)C2CC2)CCCCCCCN(C)C(=O)[C@H](Cc2cc(F)ccc2C2=C[C@@H]3COC[C@H](C2)N3C(=O)C(C)C)N(C)C1=O [Example 329] ({cBuCO(3,3-F2-1-CF3)}-[Pro(trans-4-F)][Gly(cPr)][NMehhhLys(Me)]L[X205]; lactam 3-C)	10	10	–	–	–	20	20	250
CC(C)C[C@@H]1NC(=O)[C@@H](N(C)C(=O)[C@@H](NC(=O)[C@@H]2C[C@@H](F)CN2C(=O)C2(C(F)(F)F)CCC2)C2CC2)CCCCCCCNC(=O)[C@H](Cc2cc(Cl)cnc2OC2CC2)N(C)C1=O [Example 108] ({Cyclobutanecarbonyl(1-CF3)}-[Pro(trans-4-F)][Gly(cPr)][NMe(hhhLys)]L[NMeAla(5-Cl-2-cPrO-3-pyridyl)]; lactam 3-C)	20	30	–	–	–	20	50	180
CC(C)C[C@@H]1NC(=O)[C@@H](N(C)C(=O)[C@@H](NC(=O)[C@@H]2C[C@@H](F)CN2C(=O)C2(C(F)(F)F)CC(F)(F)C2)C2CC2)CCCCCCCN(C)C(=O)[C@H](Cc2cc(Cl)ccc2-c2ccc(=O)[nH]c2)N(C)C1=O [Example 180] ({cBuCO(3,3-F2-1-CF3)}-[Pro(trans-4-F)][Gly(cPr)][NMehhhLys(Me)]L[X197]; lactam 3-C)	730	1220	–	–	–	20	30	1860
